Laboratory results taken from US20260325655A1, “DECREASING THE INTRINSICALLY DISORDERED PROTEIN ALPHA-SYNUCLEIN’S LEVELS BY TARGETING ITS STRUCTURED MRNA WITH A RIBONUCLEASE TARGETING CHIMERA” (University of Florida Research Foundation, Incorporated, priority 2023, published 2026).

Key:
Type in all cases: cell-based, human
[1] = tested on: SNCA IRE-luciferase transcript; assay: SNCA IRE-luciferase transcript abundance by RT-qPCR; settings: Homo sapiens, 2 μM, read-out: reduction of SNCA IRE-luciferase transcript levels
Experimental: (§1) RNA extraction and reverse transcription-quantitative polymerase chain reaction (RT-qPCR). Total RNA was extracted from cells using a Quick-RNA MiniPrep Kit (Zymo Research) per the manufacturer's protocol including DNase treatment. For each sample, 200 ng of RNA was reverse transcribed into cDNA by using a qScript cDNA Synthesis Kit (QuantaBio) according to the manufacturer's instructions. To assess the relative mRNA levels, RT-qPCR was performed in triplicate using SYBR Green PCR mater mix (Applied Biosystems) with a Quant Studio 5 Real-Time PCR system. The relative levels of mRNA were calculated by using the ΔΔCt method as previously described.^8
(§2) Plasmid constructs and establishment of reporter gene overexpressing cells. Construction of pIRES-Luc-EGFP-puro plasmid and pCDH-α-syn-5′-UTR-Luc-EGFP-puro plasmid used in 5′ UTR-luciferase-based selectivity assay were previously described.^4 Briefly, In-Fusion PCR cloning system (Takara Bio, Mountain View, CA, USA) was used for all plasmid constructions per the manufacturer's instructions. To ensure sequence accuracy, all plasmids generated in this study were confirmed by sequencing.

TfR mRNA = TfR mRNA in SH-SY5Y cells by RT-qPCR
Experimental: as §1

ferritin = ferritin protein in SH-SY5Y cells by Western blot
Experimental: Western blotting. After 48 h, cells were gently washed with ice-cold 1× DPBS, and total protein was extracted with Mammalian Protein Extraction Reagent (M-PER, Thermo Scientific) per the manufacturer's protocol. After quantifying protein concentration by using BCA Protein Assay Kit (Pierce Biotechnology), ~30 μg of total protein for each sample was separated using a 10% SDS-polyacrylamide gel and transferred onto a PVDF membrane. The membrane was fixed with 0.4% paraformaldehyde (pH=7.0) for 30 min at room temperature^9 and then blocked with 5% (w/v) non-fat dry milk in 1× TBST (1× TBS containing 0.1% Tween-20) for 1 h at room temperature. […] After washing 10 min each with 1× TBST three times, immunocomplex signals of each protein were detected by using a SuperSignal West Pico Chemiluminescent Substrate (Pierce Biotechnology) according to the manufacturer's protocol. The memebrane was then stripped by using 1× Stripping Buffer (200 mM glycine, pH 2.2, 4 mM SDS, 1% (v/v) Tween 20) at room temperature for 15 min, followed by blocking with 5% (w/v) non-fat dry milk at room temperature for 1 h. β-actin was used to normalize the levels of all proteins, measured by incubating with a primary antibody for β-actin (1:5000, 3700S from Cell Signaling Technology) at 4° C. overnight. […]

SH-SY5Y cells = assay: cytoprotection of SH-SY5Y cells against α-synuclein pre-formed fibrils (PFF), LDH assay; settings: Syn-RIBOTAC vs Synucleozid 2.0
Experimental: Lactate Dehydrogenase (LDH) assay. SH-SY5Y cells in 96-well plates (~60% confluency) were pre-treated with compounds in growth medium for 24 h, followed by addition of 50 ng/μL of human α-synuclein pre-formed fibrils (PFFs, SPR-322 from Eagle Biosciences). The cells were then incubated for an additional 48 h. Cell viability was measured using LDH (Lactate Dehydrogenase) Cytotoxicity Detection Kit (MK401; Takara) according to the manufacturer's instructions.

[2] = tested on: SNCA IRE-luciferase reporter; assay: wash-out experiment using the luciferase reporter assay; settings: 16 h after compound removal; 2 μM
Description: as §2
Luciferase assay. The effect of compounds on translation of SNCA IRE-containing transcript was measured by using a luciferase reporter assay. HeLa cells (~60% confluency) were transfected with plasmids (2 μg per 60 mm dish) by using JetPrime (Polyplus Transfection) according to the manufacturer's recommended procedures. Approximately 16 h after transfection, the transfection cocktail was removed, and the cells were trypsinized and seeded to 96-well plates (8,000 cells per well). After 6 h, cells were treated as described in Cell Culture. To measure the luciferase signals, the cells were then washed with 1× DPBS, and luciferase activity in each well was measured by using the ONE-Glo Luciferase Assay System (Promega) per the manufacturer's instructions. Luminescence from firefly luciferase reaction was measured using a Biomek FLx800 plate reader.

SMILES | inhibition at 2 µM [1] [%] | effect on TfR mRNA level (TfR mRNA) | effect on ferritin protein level (ferritin) | cytoprotective effect relative to the binding small molecule (SH-SY5Y cells) | activity after wash-out (in words) [2]
CCOC(=O)C1=C(Nc2ccccc2)S/C(=C\c2ccc(OCCOCCOCCOCCNC(=O)CCCOc3ccc(-n4c(SCC(=O)Nc5ccc6cn[nH]c6c5)nnc4-c4ccncc4)cc3)c(O)c2)C1=O [Syn-RiboTAC] | ~50 | None of the three transcripts was affected | no effect | 5 -fold | –
O=C(CSc1nnc(-c2ccncc2)n1-c1ccc(Br)cc1)Nc1ccc2cn[nH]c2c1 [Synucleozid-2.0] | – | – | – | – | inactive
